# Source: patent US9815794B2, “Inhibition of bacterial biofilms and microbial growth with imidazole derivatives” (North Carolina State University, priority 2011, dated 2017)
# Read-outs that look alike come from different tables or passages of the source.
# Experiments:
# [1] = tested on: difibrinated sheep's blood; assay: Red blood cell hemolysis assay; assay type: cell-based
# Description: Once the anti-biofilm and antibacterial properties of each 2-AI derivative had both been evaluated, the hemolytic potential of compounds 15, 19 and 1 was assessed (Liu et al., Antimicrob. Agents. Ch., 2007, 51: 597-603). […] Hemolysis was measured using difibrinated sheep's blood. Hemolytic potential was quantified by determining the HD50 of compound 15, 19 and 1, where HD50 is defined as the concentration that elicits 50% hemolysis. From this assay, we determined that the HD50 of compound 15, 19 and 1 were 66 μM, 61 μM and >400 μM. This corresponds to 22 and 21 μg/mL for compounds 15 and 19.
# Red Blood Cell Hemolysis Assay.
# Hemolysis assays were performed on mechanically difibrinated sheep blood (Hemostat Labs: DSB100). 1.5 mL of blood was placed into a microcentrifuge tube and centrifuged at 10000 rpm for ten minutes. The supernatant was removed and then the cells were resuspended with 1 mL of phosphate-buffered saline (PBS). The suspension was centrifuged, the supernatant was removed and cells resuspended two more times. The final cell suspension was then diluted tenfold. Test compound solutions were made in PBS and then added to aliquots of the tenfold suspension dilution. PBS alone was used as a negative control and as a zero hemolysis marker whereas a 1% Triton X sample was used as a positive control and the 100% lysis marker. Samples were then placed in an incubator at 37° C. while being shaken at 200 rpm for one hour. After one hour, the samples were transferred to microcentrifuge tubes and then centrifuged at 10000 rpm for ten minutes. The resulting supernatant was diluted by a factor of 40 in distilled water. The absorbance of the supernatant was measured with a UV spectrometer at a 540 nm wavelength.
# [2] = tested on: Rhodospirillum salexigens; assay: Marine bacteria microdilution MIC; settings: R. salexigens
# MRSA [3] = assay: Dispersion of pre-formed biofilms; assay type: cell-based, methicillin-resistant S. aureus; settings: Staphylococcus aureus, read-out: EC50, 50% dispersion of a pre-formed biofilm
# Description: (§1) The ability of 15 and 19 to disperse pre-formed biofilms was also determined for all of the aforementioned bacterial strains (both marine and terrestrial). To quantify this effect, the EC50 value of each compound against each bacterial strain was determined, where EC50 is defined as the concentration of compound that elicits 50% dispersion of a pre-formed biofilm. Both compounds are able to disperse pre-formed biofilms at low micromolar concentrations. These concentrations are also microbicidal to planktonic bacteria. […]
# (§2) Preformed Biofilms: Dispersion assays were performed by taking an overnight culture of bacterial strain and subculturing it at an OD600 of 0.01 into the necessary medium (brain heart infusion for E. faecium, tryptic soy broth with a 0.5% glucose supplement (TSBG) for MRSA, S. aureus and S. epidermidis, Luria-Bertani (LB) medium for MDRAB and E. coli, and tryptic soy broth with a 0.5% glucose supplement and a 3.0% NaCl supplement (TGN) for R. salexigens, V. cholerae, V. vulnificus and L. anguillarum.) The resulting bacterial suspension was aliquoted (100 μL) into the wells of a 96-well PVC microtiter plate. […] Biofilm dispersion was quantitated by measuring the OD540 of each well in which a negative control lane wherein no biofilm was formed served as a background and was subtracted out.
# E. coli [4] = assay: Broth microdilution MIC; assay type: cell-based; settings: Escherichia coli
# Description: (§3) Once it was determined that this specific 4,5-disubstitution pattern imparted microbicidal activity onto the 2-AI framework, this activity was quantified by measuring the MIC of each derivative against a variety of representative pathogenic bacterial strains using the microdilution protocol (CSLI, Performance Standards for Antimicrobial Suceptibility Testing; Nineteenth Informational Supplement, Clinical and Laboratory Standards Institute, Wayne, Pa., 2009). E. coli, MDRAB, P. aeruginosa, MRSA, MSSA, S. epidermidis and VRE were used for initial evaluation. From this screen, compound 15 was determined to be the lead compound and had MIC values (μg/mL) of 2, 2, 1, 0.5, 0.25, and 1 against E. coli, MDRAB, MRSA, VRE, S. Epidermidis and MSSA.
# (§4) S. aureus (ATCC #29213), S. epidermidis (ATCC #29886), MRSA (ATCC # BAA-44), MDRAB (ATCC # BAA-1605), vancomycin resistant Enterococcus faecium (VRE) (ATCC #51559) and E. coli (ATCC #35695) were obtained from the ATCC. Mechanically difibrinated sheep blood (DSB100) was obtained from Hemostat Labs. Mueller-Hinton medium was purchased from Fluka (#70192).
# (§5) Broth Microdilution Method for MIC Determination.
# S. epidermidis = assay: Broth microdilution MIC; assay type: cell-based; settings: Staphylococcus epidermidis, read-out: MIC
# Description: as §3, §4, §5
# MDRAB [5] = assay: Broth microdilution MIC; assay type: cell-based
# Description: as §3, §4, §5
# L. anguillarum = assay: Dispersion of pre-formed biofilms; assay type: cell-based, Listonella anguillarum; settings: Vibrio anguillarum, read-out: EC50, 50% dispersion of a pre-formed biofilm
# Description: as §1, §2
# MRSA [6] = assay: Broth microdilution MIC; assay type: cell-based, methicillin-resistant S. aureus; settings: Staphylococcus aureus
# Description: as §3, §4, §5
# Vibrio cholerae = assay: Marine bacteria microdilution MIC; assay type: cell-based; settings: V. cholerae
# MDRAB [7] = assay: Biofilm formation inhibition, crystal violet reporter assay; assay type: cell-based
# Description: The ability of each member of the pilot library to inhibit either E. coli or MDRAB biofilm formation at 100 μM was assessed using a crystal violet reporter assay (O'Toole et al., Mol. Microbiol., 1998, 30: 295-304).
# E. coli [8] = assay: Growth curve analysis (A600); assay type: cell-based; settings: at IC50 concentration (13 μM)
# From the text: This is typically indicative of biofilm inhibition via a traditional microbicidal mechanism instead of a mechanism that modulates biofilm formation through non-microbicidal mechanisms. […] At this concentration, a 97% reduction in bacterial growth was observed.
smiles,measurement,setting,value
"CCCCCCc1[nH]c(N)nc1CCCCCc1ccccc1 [Compound 19, 5-hexyl-4-(5-phenylpentyl)-1H-imidazol-2-amine]",HD50 (concentration that elicits 50% hemolysis),[1],61 µM
same,HD50 (concentration that elicits 50% hemolysis),[1]; converted from μM,21 µg/mL
same,MIC,[2],1.09 µg/mL
same,MIC,[2]; Rhodothalassium salexigens,1.1 µg/mL
same,EC50,MRSA [3],74.9 ± 9.8 µM
same,MIC,E. coli [4],2 µg/mL
same,MIC,S. epidermidis,0.5 µg/mL
same,MIC,MDRAB [5],4 µg/mL
same,EC50,L. anguillarum,13.8 ± 1.5 µM
same,MIC,MRSA [6],1 µg/mL
same,MIC,Vibrio cholerae,2.19 µg/mL
same,MIC,Vibrio cholerae; Vibrio cholerae,2.2 µg/mL
"CCCCCc1[nH]c(N)nc1CCCCCc1ccccc1 [Compound 15, 5-pentyl-4-(5-phenylpentyl)-1H-imidazol-2-amine]",inhibition at 100 µM,MDRAB [7],80.3 ± 8.1%
same,HD50 (concentration that elicits 50% hemolysis),[1],66 µM
same,HD50 (concentration that elicits 50% hemolysis),[1]; converted from μM,22 µg/mL
same,MIC,[2],2.10 µg/mL
same,MIC,[2]; Rhodothalassium salexigens,2.1 µg/mL
same,EC50,MRSA [3],33.9 ± 3.9 µM
same,reduction in bacterial growth,E. coli [8],97%
same,MIC,E. coli [4],2 µg/mL
same,MIC,S. epidermidis,0.25 µg/mL
same,MIC,MDRAB [5],2 µg/mL
same,EC50,L. anguillarum,14.7 ± 1.7 µM
same,MIC,MRSA [6],1 µg/mL
same,MIC,Vibrio cholerae,4.20 µg/mL
same,MIC,Vibrio cholerae; Vibrio cholerae,4.2 µg/mL
